The source made the active and inactive calls. The rule behind the calls is not given here.

The test system of this assay is MAGI cells cytotoxicity, % cell control, 2% serum. The assay is described as follows: host cell viability for CXCR4-tropic HIV-1 MAGI assay – MAGI cells, 2% serum, TC50, cytotoxicity control for HIV-1 antiviral lead project, dose response (AID 504393).
`CCOC(=O)C1=C(c2ccccc2)N=c2s/c(=C\c3ccc(OCC(=O)O)cc3)c(=O)n2C1c1cccc(OC)c1` (centres undefined): the TC50 was 57.5 µM.
On to `CCOC(=O)C1=C(C)N=c2s/c(=C\c3ccc(OCC(=O)O)cc3)c(=O)n2C1c1ccc(OC)c(OCC)c1` (centres undefined), for which the TC50 is > 100 µM (inactive).
For `Cc1c2c(=O)n(-c3nc4ccccc4s3)nc-2cc(O)n1Cc1cccnc1`, the TC50 was 99.2 µM.
Then `CCc1ccc(-c2ccc(/C=C3\SC(=S)N(CCCC(=O)O)C3=O)o2)cc1`, with > 100 µM (inactive).
Then `COc1ccc(-c2ccc(/C=C3\SC(=S)N(CCCC(=O)O)C3=O)o2)cc1`, with > 100 µM (inactive); and `Nc1sc2ccccc2[n+]1Cc1ccc(C(=O)O)cc1`, with > 100 µM (inactive); and `CS(=O)(=O)C1=NSC2=NC(=O)/C(=C\c3cccn3-c3cccc(Cl)c3)C(=N)N21`, with > 100 µM (inactive).
With `COc1ccc(-n2cccc2/C=C2/C(=N)N3C(=NC2=O)SN=C3S(C)(=O)=O)cc1Cl` the figure was 42.4 µM; with `CCOC(=O)C1=C(C)N=c2sc(=Cc3ccc(OCC(=O)O)cc3)c(=O)n2C1c1ccc(OC)cc1OC` (centres undefined), > 100 µM (inactive); with `CS(=O)(=O)C1=NSC2=NC(=O)/C(=C\c3cccn3-c3cccc(C(F)(F)F)c3)C(=N)N21`, 79.5 µM.
On to `Cc1ccc(-n2cccc2/C=C2/C(=N)N3C(=NC2=O)SN=C3S(C)(=O)=O)cc1C`, for which the TC50 was 48.9 µM.
Consider `Cc1c2c(=O)n(-c3nc4ccccc4s3)nc-2cc(O)n1CCc1ccc(O)cc1`, for which the TC50 was 37.6 µM.
Then `O=C(O)c1ccc([C@@H]2Nc3ccc(S(=O)(=O)Nc4cccc5ccccc45)cc3[C@@H]3C=CC[C@@H]32)cc1`, with 54.8 µM; and `Cc1c2c(=O)n(-c3nc4ccccc4s3)nc-2cc(O)n1Cc1ccccc1Cl`, with 82 µM; and `CCOc1ccc(-n2cccc2/C=C2/C(=N)N3C(=NC2=O)SN=C3S(C)(=O)=O)cc1`, with 42.6 µM.
Then `CS(=O)(=O)C1=NSC2=NC(=O)/C(=C\c3cccn3-c3cc(Cl)cc(Cl)c3)C(=N)N21`, with 36.5 µM; and `Cc1c2c(=O)n(-c3nc4ccccc4s3)nc-2cc(O)n1Cc1ccc(F)cc1`, with 70.4 µM.
Take `O=C(O)CCCN1C(=O)/C(=C/c2cc3ccccc3o2)SC1=S`: the TC50 was 83.6 µM.
With `CCc1ccc(-n2cccc2/C=C2/C(=N)N3C(=NC2=O)SN=C3S(C)(=O)=O)cc1` the figure was 49.7 µM.
As for `COc1cccc(-n2cccc2/C=C2/C(=N)N3C(=NC2=O)SN=C3S(C)(=O)=O)c1`, the TC50 is 57.6 µM.
For the molecule `O=C(O)CCCN1C(=O)/C(=C/c2ccc(-c3cccc(C(F)(F)F)c3)o2)SC1=S`, the TC50 is > 100 µM (inactive).
As for `COc1cccc(C2C(C(=O)Nc3ccccc3)=C(C)N=c3sc(=Cc4ccc(OCC(=O)O)cc4)c(=O)n32)c1` (centres undefined), the TC50 was > 100 µM (inactive).
As for `Cc1c2c(=O)n(-c3nc4ccccc4s3)nc-2cc(O)n1CCC(C)C`, the TC50 was 65.1 µM.
Then `CCOC(=O)C1=C(C)N=c2sc(=Cc3ccc(OCC(=O)O)cc3)c(=O)n2C1c1cc(OC)c(OC)c(OC)c1` (centres undefined), with > 100 µM (inactive); and `COc1ccc(Cn2c(O)cc3nn(-c4nc5ccccc5s4)c(=O)c-3c2C)cc1`, with 56.3 µM; and `CS(=O)(=O)C1=NSC2=NC(=O)/C(=C\c3cccn3-c3ccc(Cl)c(Cl)c3)C(=N)N21`, with 56.7 µM.
With `O=C(O)CCCN1C(=O)/C(=C/c2ccc(-c3ccc(Cl)c(Cl)c3)o2)SC1=S`, the TC50 was 11.7 µM.
Then `Cc1ccc(-c2ccc(/C=C3\SC(=S)N(CCCC(=O)O)C3=O)o2)cc1`, with > 100 µM (inactive).
`CCOC(=O)C1=C(C)N=c2s/c(=C\c3ccc(OCC(=O)O)cc3)c(=O)n2C1c1ccc(Cl)cc1` (centres undefined): the TC50 was > 100 µM (inactive).
With `Cc1c2c(=O)n(-c3nc4ccccc4s3)nc-2cc(O)n1Cc1ccncc1` the figure was 85.9 µM; with `CC1=C(C(=O)OC(C)C)C(c2ccc(Cl)cc2)n2c(s/c(=C\c3ccc(OCC(=O)O)cc3)c2=O)=N1` (centres undefined), > 100 µM (inactive); with `CCOC(=O)C1=C(C)N=c2sc(=Cc3ccc(OCC(=O)O)cc3)c(=O)n2C1c1ccccc1OC` (centres undefined), > 100 µM (inactive).
For `O=C(O)CCC(C(=O)O)N1C(=O)/C(=C\c2ccco2)SC1=S` (centres undefined), the TC50 is > 100 µM (inactive).
With `O=C(O)CCCN1C(=O)/C(=C\c2ccc(-c3cccc(Cl)c3)o2)SC1=S` the figure was 40 µM; with `O=C(O)c1ccc(C[n+]2c(-c3ccccc3)csc2Nc2ccccc2)cc1`, 80.6 µM.
Then `CCOC(=O)C1=C(C)N=c2sc(=Cc3ccc(OCC(=O)O)cc3)c(=O)n2C1c1ccccc1` (centres undefined), with > 100 µM (inactive).
With `COc1ccccc1Cn1c(O)cc2nn(-c3nc4ccccc4s3)c(=O)c-2c1C` the figure was 45.7 µM; with `CS(=O)(=O)C1=NSC2=NC(=O)/C(=C\c3cccn3-c3ccc(F)cc3)C(=N)N21`, > 100 µM (inactive).
For `COc1ccc(CCn2c(O)cc3nn(-c4nc5ccccc5s4)c(=O)c-3c2C)cc1`, the TC50 was > 100 µM (inactive).

Source of the values: PubChem BioAssay AID504393 (Southern Research Specialized Biocontainment Screening …, 2011).
